From patent publication US20120270237A9, “METHODS FOR THE IDENTIFICATION OF KINASE INTERACTING MOLECULES AND FOR THE PURIFICATION OF KINASE PROTEINS” (Cellzone AG, priority 2009, published 2012)

Assays:
Assay in all cases: Kinobeads competition binding, HL60 cell lysate
Conditions in all cases: 10 μM free compound
MPSK1 = MPSK1 (Homo sapiens, UniProt O75716); parameters: endogenous in cells; host or cells: HL60
Procedure: (§1) To one aliquot of cell lysate 10 μM of the free compound (FIG. 3, CZC31326) was added and allowed to bind to proteins in the lysate. Then the affinity matrix with the immobilized compound (Example 1) was added to capture proteins that were not interacting with the previously added free compound. Beads were separated from the lysate and bead bound proteins were eluted in SDS sample buffer and subsequently separated by SDS-Polyacrylamide gel electrophoresis (FIG. 4). Suitable gel bands were cut out and subjected to in-gel proteolytic digestion with trypsin. The second lysate aliquot was processed identically, however no free compound was added (DMSO solvent control). Peptides originating from samples 1 and 2 were labeled with iTRAQ reagents (iTRAQ 114 and iTRAQ 117) and the combined samples were analyzed with a nano-flow liquid chromatography system coupled online to a tandem mass spectrometer (LC-MS/MS) experiment followed by iTRAQ reporter ion quantification in the MS/MS spectra (Ross et al., 2004. Mol. Cell. Proteomics 3(12):1154-1169). Further experimental protocols can be found in WO2006/134056 and a previous publication (Bantscheff et al., 2007. Nature Biotechnology 25, 1035-1044). Sepharose-beads with the immobilized compound (100 μl beads per pull-down experiment) were equilibrated in lysis buffer and incubated with a cell lysate sample containing 50 mg of protein on an end-over-end shaker (Roto Shake Genie, Scientific Industries Inc.) for 2 hours at 4° C. Beads were collected, transferred to Mobicol-columns (MoBiTech 10055) and washed with 10 ml lysis buffer containing 0.4% NP40 detergent, followed by 5 ml lysis buffer containing 0.2% detergent. To elute bound proteins, 60 μl 2×SDS sample buffer was added to the column. The column was incubated for 30 minutes at 50° C. and the eluate was transferred to a siliconized microfuge tube by centrifugation. Proteins were then alkylated with 108 mM iodoacetamid. Proteins were then separated by SDS-Polyacrylamide electrophoresis (SDS-PAGE). The peptide extracts of samples treated with 10 μM of free compound (CZC31326) and the solvent control (0.5% DMSO) were treated with different variants of the isobaric tagging reagent (iTRAQ Reagents Multiplex Kit, part number 4352135, Applied Biosystems, Foster City, Calif., USA). The iTRAQ reagents are a set of multiplexed, amine-specific, stable isotope reagents that can label peptides on amino groups in up to four different biological samples enabling simultaneous identification and quantitation of peptides. The iTRAQ reagents were used according to instructions provided by the manufacturer. The samples were resuspended in 10 μl 50 mM TEAB solution, pH 8.5 and 10 μl ethanol were added. The iTRAQ reagent was dissolved in 120 μl ethanol and 10 μl of reagent solution were added to the sample. The labeling reaction was performed at room temperature for one hour on a horizontal shaker and stopped by adding 5 μl of 100 mM TEAB and 100 mM glycine in water. The two labeled sampled were then combined, dried in a vacuum centrifuge and resuspended in 10 μl of 0.1% formic acid in water. Relative protein quantitation was performed using peak areas of iTRAQ reporter ion signals essentially as described in an earlier publication (Bantscheff et al., 2007. Nature Biotechnology 25, 1035-1044).

PKD2 = biological target: T1, PKD2 (Homo sapiens, UniProt Q9BZL6); parameters: endogenous in cells; host or cells: HL60
T1 sequence (Q9BZL6 1-878): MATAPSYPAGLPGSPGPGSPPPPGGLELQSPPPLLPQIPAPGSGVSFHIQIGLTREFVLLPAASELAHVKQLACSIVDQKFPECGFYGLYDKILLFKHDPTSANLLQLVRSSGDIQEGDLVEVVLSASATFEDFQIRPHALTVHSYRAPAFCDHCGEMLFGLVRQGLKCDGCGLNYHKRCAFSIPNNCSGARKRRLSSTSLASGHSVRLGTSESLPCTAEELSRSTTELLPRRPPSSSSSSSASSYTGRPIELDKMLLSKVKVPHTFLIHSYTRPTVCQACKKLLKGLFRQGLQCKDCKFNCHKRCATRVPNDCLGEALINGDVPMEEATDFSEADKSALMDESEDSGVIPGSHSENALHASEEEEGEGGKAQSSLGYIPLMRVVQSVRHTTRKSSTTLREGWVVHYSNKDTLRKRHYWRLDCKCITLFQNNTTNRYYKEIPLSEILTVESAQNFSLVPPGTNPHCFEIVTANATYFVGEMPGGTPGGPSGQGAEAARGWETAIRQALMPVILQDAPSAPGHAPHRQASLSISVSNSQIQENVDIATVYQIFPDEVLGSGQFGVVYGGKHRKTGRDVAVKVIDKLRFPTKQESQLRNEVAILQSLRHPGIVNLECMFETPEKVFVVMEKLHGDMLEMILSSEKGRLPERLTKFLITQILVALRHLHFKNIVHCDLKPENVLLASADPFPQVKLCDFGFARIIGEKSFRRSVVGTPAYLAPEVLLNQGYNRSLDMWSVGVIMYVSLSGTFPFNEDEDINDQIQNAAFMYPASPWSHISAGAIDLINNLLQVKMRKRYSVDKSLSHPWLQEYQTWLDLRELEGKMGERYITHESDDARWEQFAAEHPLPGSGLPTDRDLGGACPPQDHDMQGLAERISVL
Procedure: as §1

DNAPK = DNAPK (Homo sapiens, UniProt P78527); parameters: endogenous in cells; host or cells: HL60 (DSMZ ACC3)
Procedure: (§2) To one aliquot of cell lysate 10 μM of the free compound (FIG. 3, CZC31326) was added and allowed to bind to proteins in the lysate. Then the affinity matrix with the immobilized compound (Example 1) was added to capture proteins that were not interacting with the previously added free compound. Beads were separated from the lysate and bead bound proteins were eluted in SDS sample buffer and subsequently separated by SDS-Polyacrylamide gel electrophoresis (FIG. 4). Suitable gel bands were cut out and subjected to in-gel proteolytic digestion with trypsin. The second lysate aliquot was processed identically, however no free compound was added (DMSO solvent control). Peptides originating from samples 1 and 2 were labeled with iTRAQ reagents (iTRAQ 114 and iTRAQ 117) and the combined samples were analyzed with a nano-flow liquid chromatography system coupled online to a tandem mass spectrometer (LC-MS/MS) experiment followed by iTRAQ reporter ion quantification in the MS/MS spectra (Ross et al., 2004. Mol. Cell. Proteomics 3(12):1154-1169). Further experimental protocols can be found in WO2006/134056 and a previous publication (Bantscheff et al., 2007. Nature Biotechnology 25, 1035-1044). Sepharose-beads with the immobilized compound (100 μl beads per pull-down experiment) were equilibrated in lysis buffer and incubated with a cell lysate sample containing 50 mg of protein on an end-over-end shaker (Roto Shake Genie, Scientific Industries Inc.) for 2 hours at 4° C. […] The iTRAQ reagents are a set of multiplexed, amine-specific, stable isotope reagents that can label peptides on amino groups in up to four different biological samples enabling simultaneous identification and quantitation of peptides. […] Relative protein quantitation was performed using peak areas of iTRAQ reporter ion signals essentially as described in an earlier publication (Bantscheff et al., 2007. Nature Biotechnology 25, 1035-1044).

FER = FER (Homo sapiens, UniProt P16591); parameters: endogenous in cells; host or cells: HL60 (DSMZ ACC3)
Procedure: as §2

Erk1 = Erk1 (Homo sapiens, UniProt P27361); parameters: endogenous in cells; host or cells: HL60 (DSMZ ACC3)
Procedure: as §2

Erk1, sequence (P27361 whole entry): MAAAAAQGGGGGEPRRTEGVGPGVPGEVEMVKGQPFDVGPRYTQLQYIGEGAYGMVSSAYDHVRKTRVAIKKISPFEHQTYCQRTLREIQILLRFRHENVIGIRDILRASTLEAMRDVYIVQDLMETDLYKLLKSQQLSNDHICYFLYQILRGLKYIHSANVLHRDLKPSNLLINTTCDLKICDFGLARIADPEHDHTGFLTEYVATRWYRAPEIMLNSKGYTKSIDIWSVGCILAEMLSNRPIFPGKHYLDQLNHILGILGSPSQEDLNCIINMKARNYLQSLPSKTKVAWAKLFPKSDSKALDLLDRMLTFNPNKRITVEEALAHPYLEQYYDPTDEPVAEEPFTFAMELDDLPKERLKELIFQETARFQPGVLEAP
MPSK1, sequence (O75716 whole entry): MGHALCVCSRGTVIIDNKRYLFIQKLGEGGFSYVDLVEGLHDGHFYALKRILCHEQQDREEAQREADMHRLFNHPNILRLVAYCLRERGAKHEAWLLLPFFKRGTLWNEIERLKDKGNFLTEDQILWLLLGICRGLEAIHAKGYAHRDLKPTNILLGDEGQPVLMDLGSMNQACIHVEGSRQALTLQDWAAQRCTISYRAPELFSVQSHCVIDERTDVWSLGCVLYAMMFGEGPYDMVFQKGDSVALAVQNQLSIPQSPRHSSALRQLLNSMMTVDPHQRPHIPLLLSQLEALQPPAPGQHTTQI
DNAPK, sequence (P78527 whole entry): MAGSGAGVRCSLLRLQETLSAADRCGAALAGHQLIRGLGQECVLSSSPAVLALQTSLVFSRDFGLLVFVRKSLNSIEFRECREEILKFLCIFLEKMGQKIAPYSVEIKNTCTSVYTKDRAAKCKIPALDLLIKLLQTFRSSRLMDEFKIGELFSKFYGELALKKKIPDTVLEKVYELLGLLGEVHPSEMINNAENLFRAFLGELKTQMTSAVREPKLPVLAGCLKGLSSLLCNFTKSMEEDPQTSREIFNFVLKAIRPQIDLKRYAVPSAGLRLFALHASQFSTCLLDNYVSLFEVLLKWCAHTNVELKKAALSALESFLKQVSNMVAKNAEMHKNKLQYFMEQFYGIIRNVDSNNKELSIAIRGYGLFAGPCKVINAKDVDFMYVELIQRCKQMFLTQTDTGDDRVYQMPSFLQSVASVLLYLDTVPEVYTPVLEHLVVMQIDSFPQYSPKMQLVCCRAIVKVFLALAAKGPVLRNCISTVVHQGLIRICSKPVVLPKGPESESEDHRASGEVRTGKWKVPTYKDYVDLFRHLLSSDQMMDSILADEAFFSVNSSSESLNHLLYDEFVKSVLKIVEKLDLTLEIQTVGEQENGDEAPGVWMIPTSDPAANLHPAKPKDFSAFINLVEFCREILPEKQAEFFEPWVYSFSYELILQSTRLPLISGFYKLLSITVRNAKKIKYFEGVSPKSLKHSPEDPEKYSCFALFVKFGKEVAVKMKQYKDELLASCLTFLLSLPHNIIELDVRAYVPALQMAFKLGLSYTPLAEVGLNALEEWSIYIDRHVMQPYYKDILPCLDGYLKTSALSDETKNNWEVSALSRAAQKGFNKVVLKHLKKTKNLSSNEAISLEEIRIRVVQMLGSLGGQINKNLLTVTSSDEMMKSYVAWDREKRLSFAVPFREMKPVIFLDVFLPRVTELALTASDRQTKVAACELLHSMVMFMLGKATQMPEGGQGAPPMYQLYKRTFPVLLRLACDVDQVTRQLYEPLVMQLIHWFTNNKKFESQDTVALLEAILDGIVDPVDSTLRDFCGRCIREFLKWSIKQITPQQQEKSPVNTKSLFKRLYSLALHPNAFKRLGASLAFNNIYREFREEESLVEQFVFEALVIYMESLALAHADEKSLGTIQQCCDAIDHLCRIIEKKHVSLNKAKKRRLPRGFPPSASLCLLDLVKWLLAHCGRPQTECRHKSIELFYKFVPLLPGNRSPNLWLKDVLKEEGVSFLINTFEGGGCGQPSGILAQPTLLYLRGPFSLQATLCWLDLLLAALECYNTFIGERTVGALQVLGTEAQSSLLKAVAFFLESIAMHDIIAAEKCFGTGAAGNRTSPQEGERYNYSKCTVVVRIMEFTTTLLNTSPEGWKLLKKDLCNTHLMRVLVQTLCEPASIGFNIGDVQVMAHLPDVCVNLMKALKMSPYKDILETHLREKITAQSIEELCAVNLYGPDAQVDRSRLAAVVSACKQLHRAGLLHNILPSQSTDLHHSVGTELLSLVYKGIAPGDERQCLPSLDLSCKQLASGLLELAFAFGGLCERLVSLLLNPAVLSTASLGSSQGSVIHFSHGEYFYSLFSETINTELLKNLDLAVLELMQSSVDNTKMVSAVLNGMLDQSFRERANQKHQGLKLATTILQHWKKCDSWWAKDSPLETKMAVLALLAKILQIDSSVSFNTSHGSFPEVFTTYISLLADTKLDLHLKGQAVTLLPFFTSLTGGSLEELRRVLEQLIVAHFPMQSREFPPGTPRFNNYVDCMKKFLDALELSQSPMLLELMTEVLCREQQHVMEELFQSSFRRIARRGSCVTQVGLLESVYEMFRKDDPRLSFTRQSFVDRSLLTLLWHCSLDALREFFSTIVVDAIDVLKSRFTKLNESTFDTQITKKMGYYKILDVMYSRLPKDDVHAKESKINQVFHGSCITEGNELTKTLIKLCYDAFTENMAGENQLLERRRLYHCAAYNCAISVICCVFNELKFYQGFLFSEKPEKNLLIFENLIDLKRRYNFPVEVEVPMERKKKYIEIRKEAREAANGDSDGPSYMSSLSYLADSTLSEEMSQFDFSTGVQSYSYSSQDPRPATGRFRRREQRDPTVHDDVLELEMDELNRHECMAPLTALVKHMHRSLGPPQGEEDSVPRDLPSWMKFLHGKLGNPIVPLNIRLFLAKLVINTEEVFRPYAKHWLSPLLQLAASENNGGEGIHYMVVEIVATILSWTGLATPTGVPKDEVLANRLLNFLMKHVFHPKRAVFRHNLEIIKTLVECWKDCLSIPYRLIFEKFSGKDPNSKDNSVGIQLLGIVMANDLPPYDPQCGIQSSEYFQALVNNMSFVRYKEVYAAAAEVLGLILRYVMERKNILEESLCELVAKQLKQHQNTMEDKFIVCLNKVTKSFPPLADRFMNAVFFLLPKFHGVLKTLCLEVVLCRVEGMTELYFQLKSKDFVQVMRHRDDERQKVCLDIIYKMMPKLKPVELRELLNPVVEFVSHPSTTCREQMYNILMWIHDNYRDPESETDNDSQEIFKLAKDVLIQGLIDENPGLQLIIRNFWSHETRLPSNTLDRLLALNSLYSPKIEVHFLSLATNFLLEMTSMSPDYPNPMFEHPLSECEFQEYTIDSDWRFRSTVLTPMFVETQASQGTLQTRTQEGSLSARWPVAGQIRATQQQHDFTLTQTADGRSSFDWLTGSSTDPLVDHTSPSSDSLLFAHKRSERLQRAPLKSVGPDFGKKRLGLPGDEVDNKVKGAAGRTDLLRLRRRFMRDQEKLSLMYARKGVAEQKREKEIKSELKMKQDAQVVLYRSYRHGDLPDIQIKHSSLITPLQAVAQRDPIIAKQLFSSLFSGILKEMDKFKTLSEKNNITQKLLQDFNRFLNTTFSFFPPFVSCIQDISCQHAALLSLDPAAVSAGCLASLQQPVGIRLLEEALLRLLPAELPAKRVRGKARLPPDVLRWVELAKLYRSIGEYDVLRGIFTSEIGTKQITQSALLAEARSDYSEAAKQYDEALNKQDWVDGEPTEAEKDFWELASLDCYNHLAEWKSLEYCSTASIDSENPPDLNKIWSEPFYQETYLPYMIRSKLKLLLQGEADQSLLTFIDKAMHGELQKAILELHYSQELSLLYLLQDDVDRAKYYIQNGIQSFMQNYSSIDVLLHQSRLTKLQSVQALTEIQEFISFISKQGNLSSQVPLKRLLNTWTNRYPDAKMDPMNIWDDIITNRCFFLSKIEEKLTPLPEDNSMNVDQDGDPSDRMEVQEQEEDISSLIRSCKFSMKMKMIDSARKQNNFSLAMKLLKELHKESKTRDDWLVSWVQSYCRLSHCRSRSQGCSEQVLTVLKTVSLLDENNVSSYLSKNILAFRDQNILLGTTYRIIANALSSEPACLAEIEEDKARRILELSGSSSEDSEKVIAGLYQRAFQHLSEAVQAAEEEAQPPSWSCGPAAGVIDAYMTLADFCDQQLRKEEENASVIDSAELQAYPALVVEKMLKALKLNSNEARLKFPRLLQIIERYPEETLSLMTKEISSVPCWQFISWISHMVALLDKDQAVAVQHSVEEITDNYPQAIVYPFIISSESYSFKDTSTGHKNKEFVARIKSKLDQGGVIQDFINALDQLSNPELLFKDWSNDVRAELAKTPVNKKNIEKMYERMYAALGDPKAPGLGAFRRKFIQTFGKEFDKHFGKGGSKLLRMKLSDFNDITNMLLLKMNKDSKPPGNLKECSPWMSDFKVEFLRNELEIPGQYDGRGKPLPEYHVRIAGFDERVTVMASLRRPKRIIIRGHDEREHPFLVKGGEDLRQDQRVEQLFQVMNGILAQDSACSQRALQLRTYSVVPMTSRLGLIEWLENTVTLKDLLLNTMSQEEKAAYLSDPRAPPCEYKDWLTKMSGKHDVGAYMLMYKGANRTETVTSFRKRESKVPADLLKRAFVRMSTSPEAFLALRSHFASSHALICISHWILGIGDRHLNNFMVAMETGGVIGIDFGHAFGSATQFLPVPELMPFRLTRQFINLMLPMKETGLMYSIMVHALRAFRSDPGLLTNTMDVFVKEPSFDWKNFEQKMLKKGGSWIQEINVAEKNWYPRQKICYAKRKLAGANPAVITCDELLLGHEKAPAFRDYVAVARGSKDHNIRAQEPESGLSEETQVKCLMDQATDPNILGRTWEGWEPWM

inhibition at 10 µM (MPSK1): 93.4%
inhibition at 10 µM (PKD2): 97.9%
inhibition at 10 µM (DNAPK): 75.5%
inhibition at 10 µM (FER): 97.7%
inhibition at 10 µM (Erk1): 84.8%
Compound: CS(=O)(=O)Nc1ccccc1Nc1nc(Nc2cccc(OCCN)c2)ncc1Cl [CZC31326, N-(2-(2-(3-(2-aminoethoxy)phenylamino)-5-chloropyrimidin-4-ylamino)phenyl)methanesulfonamide]
